Assay results published in US20240358783A1, “METHOD AND SYSTEM FOR THE TRANSDERMAL ADMINISTRATION OF A P[…]” (LYFE CHNG, LLC, priority 2021, published 2024).

Assay: skin flux of psilocin, inventors' testing
Format: in vitro ADME
Description: With psilocin, specifically, the Madsen et al. findings provide a starting point for identifying optimal plasma psilocin levels that correlate with a desired 5-HT2A receptor occupancy levels. According to the inventors' testing, the skin flux of psilocin is in the range of 1 μg/cm^2/hr to […], on average 5 μg/cm^2/hr. With patch area of 50 cm^2 the dose per hour input ranges from 50 μg/hr/patch to 500 μg/hr/patch. At this patch size, the high end of the hourly input is approaching that of a 1-mg intravenous application. The daily dose ranges from 1.2 mg/day/patch to 12 mg/day/patch. At a skin flux of 5 μg/cm^2/hr, the hourly input is 250 μg/hr/patch and the daily dose is 6 mg/day/patch. A suitable transdermal system for accomplishing the aforementioned delivery profile can be constructed as described above.

[1] = patch area of 50 cm^2, at a skin flux of 5 μg/cm^2/hr

CN(C)CCc1c[nH]c2cccc(O)c12 [psilocin]
skin flux of psilocin, on average (average, according to the inventors' testing): 5 μg/cm^2/hr
daily dose [1]: 6 mg/day/patch
hourly input [1]: 250 μg/hr/patch
